In ChEMBL document CHEMBL1201862, “PubChem BioAssay data set” (2004):
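Five concentrations, 48 hours, 96-well plates. Abbreviation: GI50, concentration required for 50% inhibition of growth.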 Activity calls are given as the source filed them. No stated cut-off is given here; in the data, active = GI50 up to about 1.1 µM and inactive = higher.

Key:
Test in all cases: inhibition of tumour cell growth, NCI panel, 48 h
EKVX = tested on: EKVX
HOP-92 = tested on: HOP-92
Hs-578T = tested on: Hs-578T
SF-268 = tested on: SF-268
NCI-H226 = tested on: NCI-H226
SK-MEL-28 = tested on: SK-MEL-28
OVCAR-4 = tested on: OVCAR-4
OVCAR-8 = tested on: OVCAR-8
M14 = tested on: M14
MOLT-4 = tested on: MOLT-4
MDA-MB-435 = tested on: MDA-MB-435
SR = tested on: SR
SF-295 = tested on: SF-295
SNB-19 = tested on: SNB-19
MDA-MB-231 = tested on: MDA-MB-231
SF-539 = tested on: SF-539
TK-10 = tested on: TK-10
MDA-N = tested on: MDA-N
RXF 393 = tested on: RXF 393
SN12C = tested on: SN12C
UACC-257 = tested on: UACC-257
Malme-3M = tested on: Malme-3M
SK-MEL-5 = tested on: SK-MEL-5
K562 = tested on: K562
PC-3 = tested on: PC-3
CCRF-CEM = tested on: CCRF-CEM
DU-145 = tested on: DU-145
SW-620 = tested on: SW-620
ACHN = tested on: ACHN
HCT-116 = tested on: HCT-116
UACC-62 = tested on: UACC-62
COLO 205 = tested on: COLO 205
U-251 = tested on: U-251
UO-31 = tested on: UO-31
MCF7 = tested on: MCF7
HT-29 = tested on: HT-29
KM12 = tested on: KM12
NCI-H460 = tested on: NCI-H460
SK-OV-3 = tested on: SK-OV-3
NCI-H23 = tested on: NCI-H23
SNB-75 = tested on: SNB-75
RPMI-8226 = tested on: RPMI-8226
786-0 = tested on: 786-0
LOX IMVI = tested on: LOX IMVI
HCC 2998 = tested on: HCC 2998
BT-549 = tested on: BT-549
NCI/ADR-RES = tested on: NCI/ADR-RES
HL-60 = tested on: HL-60
NCI-H522 = tested on: NCI-H522
OVCAR-3 = tested on: OVCAR-3
T47D = tested on: T47D
A549 = tested on: A549
HCT-15 = tested on: HCT-15
OVCAR-5 = tested on: OVCAR-5
HOP-62 = tested on: HOP-62
SK-MEL-2 = tested on: SK-MEL-2
CAKI-1 = tested on: CAKI-1
IGROV-1 = tested on: IGROV-1

In the case of `CC(=O)C(=C(c1ccccc1)c1ccccc1)c1ccccc1`, the GI50 (EKVX) was 15.6 µM (inactive), the GI50 (HOP-92) was > 100 µM (inactive) and the GI50 (Hs-578T) was > 100 µM (inactive). For the same compound, the GI50 (SF-268) was > 100 µM (inactive), the GI50 (NCI-H226) was > 100 µM (inactive) and the GI50 (SK-MEL-28) was > 100 µM (inactive). For the same compound, the GI50 (OVCAR-4) was 70 µM (inactive), the GI50 (OVCAR-8) was > 100 µM (inactive) and the GI50 (M14) was > 100 µM (inactive). The GI50 (MOLT-4) was 87.5 µM (inactive), the GI50 (MDA-MB-435) was > 100 µM (inactive) and the GI50 (SR) was 31.8 µM (inactive). For the same compound, the GI50 (SF-295) was > 100 µM (inactive), the GI50 (SNB-19) was > 100 µM (inactive) and the GI50 (MDA-MB-231) was > 100 µM (inactive). For the same compound, the GI50 (SF-539) was > 100 µM (inactive), the GI50 (TK-10) was > 100 µM (inactive) and the GI50 (MDA-N) was > 100 µM (inactive). For the same compound, the GI50 (RXF 393) was > 100 µM (inactive), the GI50 (SN12C) was > 100 µM (inactive) and the GI50 (UACC-257) was > 100 µM (inactive). For the same compound, the GI50 (Malme-3M) was > 100 µM (inactive), the GI50 (SK-MEL-5) was > 100 µM (inactive) and the GI50 (K562) was 62.7 µM (inactive). The GI50 (PC-3) was 45.2 µM (inactive), the GI50 (CCRF-CEM) was 40.7 µM (inactive) and the GI50 (DU-145) was > 100 µM (inactive). For the same compound, the GI50 (SW-620) was > 100 µM (inactive), the GI50 (ACHN) was > 100 µM (inactive) and the GI50 (HCT-116) was > 100 µM (inactive). For the same compound, the GI50 (UACC-62) was > 100 µM (inactive), the GI50 (COLO 205) was > 100 µM (inactive) and the GI50 (U-251) was > 100 µM (inactive). The GI50 (UO-31) was > 100 µM (inactive), the GI50 (MCF7) was > 100 µM (inactive) and the GI50 (HT-29) was > 100 µM (inactive). For the same compound, the GI50 (KM12) was > 100 µM (inactive), the GI50 (NCI-H460) was > 100 µM (inactive) and the GI50 (SK-OV-3) was > 100 µM (inactive). The GI50 (NCI-H23) was > 100 µM (inactive), the GI50 (SNB-75) was 87.7 µM (inactive) and the GI50 (RPMI-8226) was 52.6 µM (inactive). For the same compound, the GI50 (786-0) was > 100 µM (inactive), the GI50 (LOX IMVI) was > 100 µM (inactive) and the GI50 (HCC 2998) was > 100 µM (inactive). The GI50 (BT-549) was > 100 µM (inactive), the GI50 (NCI/ADR-RES) was > 100 µM (inactive) and the GI50 (HL-60) was 20.5 µM (inactive). The GI50 (NCI-H522) was > 100 µM (inactive), the GI50 (OVCAR-3) was > 100 µM (inactive) and the GI50 (T47D) was > 100 µM (inactive). For the same compound, the GI50 (A549) was > 100 µM (inactive), the GI50 (HCT-15) was 86.7 µM and the GI50 (OVCAR-5) was > 100 µM (inactive). The GI50 (HOP-62) was > 100 µM (inactive).

`COc1cccc(C2CC(C)(O)Oc3cc4c(cc32)OCO4)c1` (configuration not stated) was tested, and the GI50 (EKVX) was 36.1 µM (inactive), the GI50 (HOP-92) was 26.7 µM (inactive) and the GI50 (Hs-578T) was 16.4 µM (inactive). The GI50 (SF-268) was 30.6 µM (inactive), the GI50 (NCI-H226) was 17.3 µM (inactive) and the GI50 (SK-MEL-28) was 52.6 µM (inactive). The GI50 (OVCAR-4) was 24.2 µM (inactive), the GI50 (OVCAR-8) was 29.6 µM (inactive) and the GI50 (SK-MEL-2) was 9.53 µM (inactive). For the same compound, the GI50 (M14) was 12.5 µM (inactive), the GI50 (MOLT-4) was 8.97 µM (inactive) and the GI50 (MDA-MB-435) was 3.3 µM (inactive). The GI50 (SR) was 4.58 µM (inactive), the GI50 (CAKI-1) was 29 µM (inactive) and the GI50 (SF-295) was 17.8 µM (inactive). For the same compound, the GI50 (SNB-19) was 32.6 µM (inactive), the GI50 (IGROV-1) was 24 µM (inactive) and the GI50 (MDA-MB-231) was 24.1 µM (inactive). For the same compound, the GI50 (TK-10) was 21.1 µM (inactive), the GI50 (MDA-N) was 2.82 µM (inactive) and the GI50 (RXF 393) was 28 µM (inactive). For the same compound, the GI50 (SN12C) was 27.3 µM (inactive), the GI50 (UACC-257) was 37.6 µM (inactive) and the GI50 (Malme-3M) was 26.2 µM (inactive). The GI50 (SK-MEL-5) was 14.2 µM (inactive), the GI50 (K562) was 19.5 µM (inactive) and the GI50 (PC-3) was 25.1 µM (inactive). For the same compound, the GI50 (CCRF-CEM) was 47.8 µM (inactive), the GI50 (DU-145) was 31.3 µM (inactive) and the GI50 (SW-620) was 7.31 µM (inactive). For the same compound, the GI50 (ACHN) was 25.9 µM (inactive), the GI50 (HCT-116) was 9.44 µM (inactive) and the GI50 (UACC-62) was 14.4 µM (inactive). For the same compound, the GI50 (COLO 205) was 20.7 µM (inactive), the GI50 (U-251) was 23.4 µM (inactive) and the GI50 (UO-31) was 23.3 µM (inactive). For the same compound, the GI50 (MCF7) was 17.9 µM (inactive), the GI50 (HT-29) was 7.26 µM (inactive) and the GI50 (KM12) was 11.2 µM (inactive). For the same compound, the GI50 (NCI-H460) was 16.1 µM (inactive), the GI50 (SK-OV-3) was 16.9 µM (inactive) and the GI50 (NCI-H23) was 28.1 µM (inactive). The GI50 (SNB-75) was 18.6 µM (inactive), the GI50 (RPMI-8226) was 16.1 µM (inactive) and the GI50 (786-0) was 33.7 µM (inactive). The GI50 (LOX IMVI) was 22.3 µM (inactive), the GI50 (HCC 2998) was 27.5 µM (inactive) and the GI50 (BT-549) was 16.1 µM (inactive). The GI50 (NCI/ADR-RES) was 16.3 µM (inactive), the GI50 (HL-60) was 17.2 µM (inactive) and the GI50 (NCI-H522) was 7.21 µM (inactive). The GI50 (OVCAR-3) was 19.4 µM (inactive), the GI50 (T47D) was 27.8 µM (inactive) and the GI50 (A549) was 31 µM (inactive). The GI50 (HCT-15) was 7.01 µM, the GI50 (OVCAR-5) was 35.8 µM (inactive) and the GI50 (HOP-62) was 21.1 µM (inactive).
